Test system: SARS-CoV-2
Assay: SARS-CoV-2 antiviral assay (dose-response, automated confocal imaging of infected cells)
Assay type: cell-based, severe acute respiratory syndrome coronavirus-2
Conditions: SARS-CoV-2, Vero81-derived F1G-red cells, MOI 0.2, 16 h, compounds at 1.56-25 µM
Procedure: Dose-response experiments were conducted to determine half-maximal inhibitory concentration, IC50 of the compounds on severe acute respiratory syndrome coronavirus-2 (SARS-CoV-2). Vero81-derived F1G-red cells seeded in 384-well plate were inoculated with SARS-CoV-2 at a multiplicity of infection (MOI) of 0.2, at 37°C, in the presence of each compound at 1.56, 3.13, 6.25, 12.5 and 25 µM. Images were acquired 16 h later using an InCell-6500 automated confocal microscope (Cytiva, Marlborough, United States). Infected cells and total cell numbers were quantified as previously described. Percentage of infection relative to the DMSO controls were obtained and IC50 were calculated using Prism 10 software (Graph Pad Inc., La Jolla, CA, USA). […] Table 2. IC50 of pure and synthetic compounds on SARS-CoV-2

[1] = Severe acute respiratory syndrome coronavirus 2, 16 h

Row | Structure (SMILES) | IC50 [1] [µM] | IC50 [µM]
1 | CCCC(=O)C1=C(O)C(CC=C(C)C)=C(O)C(CC=C(C)C)(CC=C(C)C)C1=O [AH10-F2, 2-butyryl-3,5-dihydroxy-4,6,6-tris(3-methylbut-2-en-1-yl)cyclohexa-2,4-dien-1-one] | < 14 | –
2 | CC(C)=CCC1=C(O)C(CC=C(C)C)(CC=C(C)C)C(=O)C(C(=O)C(C)C)=C1O [LB.70-F2, 3,5-dihydroxy-4,6,6-tris(3-methylbut-2-en-1-yl)-2-(2-methylpropanoyl)cyclo-hexa-2,4-dien-1-one] | – | < 7
3 | CCCCC(=O)C1=C(O)C(CC=C(C)C)=C(O)C(CC=C(C)C)(CC=C(C)C)C1=O [AH18-F4, 3,5-dihydroxy-4,6,6-tris(3-methylbut-2-en-1-yl)-2-pentanoylcyclohexa-2,4-dien-1-one] | < 14 | –
4 | CC(C)=CCC1=C(O)C(CC=C(C)C)(CC=C(C)C)C(=O)C(C(=O)C(C)C)=C1O [AH15-F1, 3,5-dihydroxy-2-isobutyryl-4,6,6-tris(3-methylbut-2-en-1-yl)cyclohexa-2,4-dien-1-one] | < 14 | –
5 | CC(C)=CCC1=C(O)C(C(=O)CC(C)C)=C(O)C(CC=C(C)C)(CC=C(C)C)C1=O [Lupulone] | < 7 | –
6 | CC(C)=CCC1(CC=C(C)C)C(=O)C(C(=O)C(C)C)=C(O)C(C(=O)C(C)C)=C1O [AH66-F1, 1,1'-(2,4-dihydroxy-5,5-bis(3-methylbut-2-en-1-yl)-6-oxocyclohexa-1,3-diene-1,3-diyl)bis(2-methylpropan-1-one)] | < 25 | –
7 | CC(C)=CCc1c(O)cc(O)c(C(=O)C(C)C)c1O [AH62-F2, 2-methyl-1-(2,4,6-trihydroxy-3-(3-methylbut-2-en-1-yl)phenyl)propan-1-one] | < 7 | –
8 | CC(C)=CCC1=C(O)C(C(=O)C(C)C)=C(O)C(CC=C(C)C)(CC=C(C)C)C1=O [Colupulone, Co-lupulone] | – | < 7
9 | CC(C)=CCC1=C(O)C(CC=C(C)C)(CC=C(C)C)C(=O)C(C(=O)CCC(C)C)=C1O [AH39-F1, 3,5-dihydroxy-4,6,6-tris(3-methylbut-2-en-1-yl)-2-(4-methylpentanoyl)cyclohexa-2,4-dien-1-one] | < 25 | –
10 | CCC(C)CC(=O)C1=C(O)C(CC=C(C)C)=C(O)C(CC=C(C)C)(CC=C(C)C)C1=O (centres unmarked) [AH40-F1, 3,5-dihydroxy-4,6,6-tris(3-methylbut-2-en-1-yl)-2-(3-methylpentanoyl)cyclohexa-2,4-dien-1-one] | > 25 | –
11 | CC(=O)C1=C(O)C(CC=C(C)C)=C(O)C(CC=C(C)C)(CC=C(C)C)C1=O [AH16-F2, 2-acetyl-3,5-dihydroxy-4,6,6-tris(3-methylbut-2-en-1-yl)cyclohexa-2,4-dien-1-one] | > 25 | –
12 | CC(C)=CCC1=C(O)C(CC=C(C)C)(CC=C(C)C)C(=O)C(C(=O)C=Cc2ccccc2)=C1O [AH41-F1, 2-cinnamoyl-3,5-dihydroxy-4,6,6-tris(3-methylbut-2-en-1-yl)cyclohexa-2,4-dien-1-one] | < 25 | –
13 | CCC(=O)C1=C(O)C(CC=C(C)C)=C(O)C(CC=C(C)C)(CC=C(C)C)C1=O [AH17-F2, 3,5-dihydroxy-4,6,6-tris(3-methylbut-2-en-1-yl)-2-propionylcyclohexa-2,4-dien-1-one] | > 25 | –
14 | CCC(C)C(=O)C1=C(O)C(CC=C(C)C)=C(O)C(CC=C(C)C)(CC=C(C)C)C1=O (centres unmarked) [AH8-F2, 3,5-dihydroxy-4,6,6-tris(3-methylbut-2-en-1-yl)-2-(2-methylbutanoyl)cyclohexa-2,4-dien-1-one] | < 25 | –
